Laboratory results reported in patent publication US20150065416A1, “NOVEL DRUG COMBINATION” (FAB PHARMA SAS, priority 2013, published 2015).
Values after ≈ are worked out from the molar mass of the structure shown. Like-named read-outs stand apart in the source and are kept apart here.

Tests used:
A. baumannii isolates [1] = assay: Checkerboard testing (compound (I)/antibacterial agent interaction, FIC index); assay type: cell-based, Acinetobacter baumannii
Experimental: Checkerboard interaction studies were performed using 5 isolates from each of the sub-groups and time kill studies were performed using 3 isolates from each sub-group.
Checkerboards (20 isolates, 5 per sub-group) were prepared so as to contain multiple concentrations of compound (I) with different additional antibacterial agents (amikacin, gentamicin, colistin, meropenem and tobramycin) as follows:
Serial two-fold dilutions of the antimicrobial agents alone or in combination in wells of 96 well microtiter plates were inoculated with the appropriate inoculum so that each well contained approximately 4-5×10^4 CFU/ml. Plates were incubated at 35° C. for 16-20 hours. Combination concentrations were tested between 0.25×MIC and 2×MIC. Growth and sterility controls were also included in each plate.
Synergy, indifference and antagonism were calculated based upon the use of the fractional inhibitory concentration (FIC) indices as described by Pillai, Moellering & Eliopoulos (2005) whereby:
Synergism=FIC index of ≦0.5 Indifference=FIC index >1 but ≦4 Additivity >0.5 to 1 Antagonism=FIC index of >4
Checkerboard studies were carried out as described in General Procedures using twenty different A. baumannii isolates with 5 per sub-group of: susceptible, amikacin-resistant, colistin-resistant and meropenem-resistant.

A. baumannii isolates [2] = assay: Individual antimicrobial susceptibility testing (MIC, broth microdilution, CLSI); assay type: cell-based, Acinetobacter baumannii; conditions: for MIC50 / MIC90: Acinetobacter baumannii
Experimental: In the antimicrobial susceptibility testing 77 isolates of A. baumannii (from 2010) in the following sub-groups were tested: • 22 isolates generally susceptible to antimicrobial agents (“Sus”) • 20 carbapenem-resistant isolates (e.g. “MPM-R”) • 20 aminoglycoside-resistant isolates (e.g. “AMK-R”) • 15 colistin-resistant isolates. (e.g. “COL-R”)
Minimum inhibitory concentration (MIC) endpoints were determined by broth microdilution according to CLSI guidelines (CLSI, M7-A8 & M100-S22, 2012). Panels were prepared at IHMA using cation-adjusted Mueller-Hinton broth. Colonies were taken directly from a second-pass culture plate and prepared to a suspension equivalent of the 0.5 McFarland standard using normal saline.
Testing was carried out as described in the General Procedures to determine minimum inhibitory concentration (MIC) end points for compound (I), amikacin, colistin, gentamicin, meropenem and tobramycin, for 77 A. baumannii isolates. Under the “MIC (μg/ml)” heading, the first column (Range) indicates the MIC end points for the particular number (N) of isolates tested, the second column (50%) provides an estimate of the concentration that inhibits 50% (MIC50) of bacterial isolates tested, and the third column (90%) provides an estimate of the concentration that inhibits 90% of the bacterial isolates tested.

[3] = Amikacin-resistant isolates, N=20
[4] = Colistin-resistant isolates, N=15
[5] = Meropenem-resistant isolates, N=20

For gentamicin, the MIC (A. baumannii isolates [1]; A. baumannii 441142, colistin-resistant) was greater than 1024 µg/mL, the MIC (A. baumannii isolates [1]; A. baumannii 441160, colistin-resistant) was greater than 1024 µg/mL and the MIC (A. baumannii isolates [1]; A. baumannii 463996, colistin-resistant) was 2 µg/mL. The MIC (A. baumannii isolates [1]; A. baumannii 466936, colistin-resistant) was 4 µg/mL, the MIC (A. baumannii isolates [1]; A. baumannii 517303, colistin-resistant) was 512 µg/mL and the MIC (A. baumannii isolates [1]; A. baumannii 618649, meropenem-resistant) was 0.5 µg/mL. It also gave an MIC (A. baumannii isolates [1]; A. baumannii 625917, meropenem-resistant) of 1 µg/mL, an MIC (A. baumannii isolates [1]; A. baumannii 628760, susceptible) of 1 µg/mL and an MIC (A. baumannii isolates [1]; A. baumannii 637723, amikacin-resistant) of 128 µg/mL. It also gave an MIC (A. baumannii isolates [1]; A. baumannii 638115, amikacin-resistant) of 4 µg/mL, an MIC (A. baumannii isolates [1]; A. baumannii 650216, meropenem-resistant) of 64 µg/mL and an MIC (A. baumannii isolates [1]; A. baumannii 655932, amikacin-resistant) of 128 µg/mL. The MIC (A. baumannii isolates [1]; A. baumannii 661954, amikacin-resistant) was 16 µg/mL, the MIC (A. baumannii isolates [1]; A. baumannii 667848, meropenem-resistant) was 256 µg/mL and the MIC (A. baumannii isolates [1]; A. baumannii 668116, susceptible) was 0.5 µg/mL. It also gave an MIC (A. baumannii isolates [1]; A. baumannii 668239, amikacin-resistant) of 1024 µg/mL, an MIC (A. baumannii isolates [1]; A. baumannii 670348, susceptible) of 1 µg/mL and an MIC (A. baumannii isolates [1]; A. baumannii 671050, meropenem-resistant) of 8 µg/mL. The MIC (A. baumannii isolates [1]; A. baumannii 672190, susceptible) was 1 µg/mL, the MIC (A. baumannii isolates [1]; A. baumannii 674340, susceptible) was 1 µg/mL and the “MIC 50%” value (A. baumannii isolates [2]; All isolates, N=77) was 32 µg/mL. The “MIC 90%” value (A. baumannii isolates [2]; All isolates, N=77) was greater than 32 µg/mL, the “MIC 50%” value (A. baumannii isolates [2]; [3]) was greater than 32 µg/mL and the “MIC 90%” value (A. baumannii isolates [2]; [3]) was greater than 32 µg/mL. For the same compound, the “MIC 50%” value (A. baumannii isolates [2]; [4]) was 32 µg/mL, the “MIC 90%” value (A. baumannii isolates [2]; [4]) was greater than 32 µg/mL and the “MIC 50%” value (A. baumannii isolates [2]; [5]) was greater than 32 µg/mL. The “MIC 90%” value (A. baumannii isolates [2]; [5]) was greater than 32 µg/mL, the “MIC 50%” value (A. baumannii isolates [2]; Susceptible isolates, N=22) was 1 µg/mL and the “MIC 90%” value (A. baumannii isolates [2]; Susceptible isolates, N=22) was 2 µg/mL. The “MIC Range” value (A. baumannii isolates [2]; Susceptible isolates, N=22) was 0.06 to 2 µg/mL.

`NC[C@H]1O[C@H](O[C@H]2[C@H](O)[C@@H](O[C@H]3O[C@H](CO)[C@@H](O)[C@H](N)[C@H]3O)[C@H](N)C[C@@H]2N)[C@H](N)C[C@@H]1O` [tobramycin] gave an MIC (A. baumannii isolates [1]; Acinetobacter baumannii, A. baumannii 441142, colistin-resistant, read-out: MIC) greater than 1020 µg/mL, an MIC (A. baumannii isolates [1]; Acinetobacter baumannii, A. baumannii 441160, colistin-resistant, read-out: MIC) greater than 1020 µg/mL and an MIC (A. baumannii isolates [1]; Acinetobacter baumannii, A. baumannii 463996, colistin-resistant, read-out: MIC) of 2 µg/mL. It also gave an MIC (A. baumannii isolates [1]; Acinetobacter baumannii, A. baumannii 466936, colistin-resistant, read-out: MIC) of 64 µg/mL, an MIC (A. baumannii isolates [1]; Acinetobacter baumannii, A. baumannii 517303, colistin-resistant, read-out: MIC) of 256 µg/mL and an MIC (A. baumannii isolates [1]; Acinetobacter baumannii, A. baumannii 618649, meropenem-resistant, read-out: MIC) of 1 µg/mL. For the same compound, the MIC (A. baumannii isolates [1]; Acinetobacter baumannii, A. baumannii 625917, meropenem-resistant, read-out: MIC) was 1 µg/mL, the MIC (A. baumannii isolates [1]; Acinetobacter baumannii, A. baumannii 628760, susceptible, read-out: MIC) was 2 µg/mL and the MIC (A. baumannii isolates [1]; Acinetobacter baumannii, A. baumannii 637723, amikacin-resistant, read-out: MIC) was 2 µg/mL. It also gave an MIC (A. baumannii isolates [1]; Acinetobacter baumannii, A. baumannii 638115, amikacin-resistant, read-out: MIC) of 2 µg/mL, an MIC (A. baumannii isolates [1]; Acinetobacter baumannii, A. baumannii 650216, meropenem-resistant, read-out: MIC) of 1 µg/mL and an MIC (A. baumannii isolates [1]; Acinetobacter baumannii, A. baumannii 655932, amikacin-resistant, read-out: MIC) of 2 µg/mL. It also gave an MIC (A. baumannii isolates [1]; Acinetobacter baumannii, A. baumannii 661954, amikacin-resistant, read-out: MIC) of 1 µg/mL, an MIC (A. baumannii isolates [1]; Acinetobacter baumannii, A. baumannii 667848, meropenem-resistant, read-out: MIC) of 1 µg/mL and an MIC (A. baumannii isolates [1]; Acinetobacter baumannii, A. baumannii 668116, susceptible, read-out: MIC) of 1 µg/mL. For the same compound, the MIC (A. baumannii isolates [1]; Acinetobacter baumannii, A. baumannii 668239, amikacin-resistant, read-out: MIC) was 4 µg/mL, the MIC (A. baumannii isolates [1]; Acinetobacter baumannii, A. baumannii 670348, susceptible, read-out: MIC) was 2 µg/mL and the MIC (A. baumannii isolates [1]; Acinetobacter baumannii, A. baumannii 671050, meropenem-resistant, read-out: MIC) was 4 µg/mL. For the same compound, the MIC (A. baumannii isolates [1]; Acinetobacter baumannii, A. baumannii 672190, susceptible, read-out: MIC) was 1 µg/mL, the MIC (A. baumannii isolates [1]; Acinetobacter baumannii, A. baumannii 674340, susceptible, read-out: MIC) was 1 µg/mL and the MIC50 (A. baumannii isolates [2]; All isolates, N=77) was 2 µg/mL (≈ 4.28 µM). The MIC90 (A. baumannii isolates [2]; All isolates, N=77) was greater than 32 µg/mL, the MIC50 (A. baumannii isolates [2]; [3]) was greater than 32 µg/mL and the MIC90 (A. baumannii isolates [2]; [3]) was greater than 32 µg/mL. The MIC50 (A. baumannii isolates [2]; [4]) was 32 µg/mL (≈ 68.4 µM), the MIC90 (A. baumannii isolates [2]; [4]) was greater than 32 µg/mL and the MIC50 (A. baumannii isolates [2]; [5]) was 4 µg/mL (≈ 8.56 µM). The MIC90 (A. baumannii isolates [2]; [5]) was greater than 32 µg/mL, the MIC50 (A. baumannii isolates [2]; Susceptible isolates, N=22) was 1 µg/mL (≈ 2.14 µM) and the MIC90 (A. baumannii isolates [2]; Susceptible isolates, N=22) was 2 µg/mL (≈ 4.28 µM). For the same compound, the “MIC Range” value (A. baumannii isolates [2]; Susceptible isolates, N=22) was 0.12 to 2 µg/mL.
